Data as given in ChEMBL document CHEMBL1201862, “PubChem BioAssay data set” (2004).
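Exposure lasted 48 hours, with cells grown in 96-well plates and compounds tested at five concentrations. Here, GI50 denotes the concentration required for 50% inhibition of growth.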 Calls of active or inactive are those of the source. Rule as the data show it: active = GI50 up to about 1.1 µM and inactive = higher.

Legend:
Assay in all cases: NCI tumour cell line growth inhibition, 48 h
MDA-N = system: MDA-N
SNB-75 = system: SNB-75
RXF 393 = system: RXF 393
SK-MEL-28 = system: SK-MEL-28
HOP-92 = system: HOP-92
NCI-H460 = system: NCI-H460
CCRF-CEM = system: CCRF-CEM
UACC-62 = system: UACC-62
SF-539 = system: SF-539
OVCAR-4 = system: OVCAR-4
SK-MEL-5 = system: SK-MEL-5
M14 = system: M14
SF-295 = system: SF-295
HT-29 = system: HT-29
K562 = system: K562
ACHN = system: ACHN
NCI-H23 = system: NCI-H23
OVCAR-8 = system: OVCAR-8

Structure (SMILES) | GI50 (MDA-N) | GI50 (SNB-75) | GI50 (RXF 393) | GI50 (SK-MEL-28) | GI50 (HOP-92) | GI50 (NCI-H460) | GI50 (CCRF-CEM) | GI50 (UACC-62) | GI50 (SF-539) | GI50 (OVCAR-4) | GI50 (SK-MEL-5) | GI50 (M14) | GI50 (SF-295) | GI50 (HT-29) | GI50 (K562) | GI50 (ACHN) | GI50 (NCI-H23) | GI50 (OVCAR-8)
O=C1CC(c2ccc(Cl)cc2)C2(C(=O)NC(=S)NC2=O)C(c2ccc(Cl)cc2)C1 (stereo not drawn) | 17.2 µM (inactive) | 15.1 µM (inactive) | 14.5 µM (inactive) | 16.1 µM (inactive) | 5.31 µM (inactive) | 14.9 µM (inactive) | 24.2 µM (inactive) | 16.1 µM (inactive) | 20 µM (inactive) | 17.5 µM (inactive) | 17 µM (inactive) | 22.2 µM (inactive) | 17.6 µM (inactive) | 16.9 µM (inactive) | 30.5 µM (inactive) | 36.2 µM (inactive) | 18.8 µM (inactive) | –
NC(=S)NN=C1Cc2ccccc2C1 | > 100 µM (inactive) | > 100 µM (inactive) | > 100 µM (inactive) | > 100 µM (inactive) | > 100 µM (inactive) | > 100 µM (inactive) | > 100 µM (inactive) | > 100 µM (inactive) | > 100 µM (inactive) | > 100 µM (inactive) | > 100 µM (inactive) | > 100 µM (inactive) | > 100 µM (inactive) | > 100 µM (inactive) | > 100 µM (inactive) | > 100 µM (inactive) | > 100 µM (inactive) | > 100 µM (inactive)
COc1ccc2nccc(SCC(=O)O)c2c1 | > 100 µM (inactive) | – | > 100 µM (inactive) | > 100 µM (inactive) | > 100 µM (inactive) | > 100 µM (inactive) | > 100 µM (inactive) | > 100 µM (inactive) | – | > 100 µM (inactive) | > 100 µM (inactive) | > 100 µM (inactive) | > 100 µM (inactive) | > 100 µM (inactive) | > 100 µM (inactive) | > 100 µM (inactive) | > 100 µM (inactive) | > 100 µM (inactive)
CCOC(=O)/C(=C\NCc1ccc2c(c1)OCO2)c1nc2ccccc2[nH]1 | 75 µM (inactive) | 77.3 µM (inactive) | > 100 µM (inactive) | 60.7 µM (inactive) | 71.9 µM (inactive) | 24.9 µM (inactive) | 42 µM (inactive) | 26.9 µM (inactive) | 35.4 µM (inactive) | 57.3 µM (inactive) | 25.8 µM (inactive) | 47.2 µM (inactive) | 53.5 µM (inactive) | 24.6 µM (inactive) | 52.2 µM (inactive) | 38.4 µM (inactive) | 25.6 µM (inactive) | 43 µM (inactive)
Cc1cccc2c(N)c3cccc(C(=O)NCC[N+](C)(C)Cc4ccc([N+](=O)[O-])s4)c3nc12 | 16 µM (inactive) | 17.2 µM (inactive) | 8.36 µM (inactive) | 33 µM (inactive) | 16 µM (inactive) | 1.57 µM (inactive) | 1.85 µM (inactive) | 16.5 µM (inactive) | 4.93 µM (inactive) | 8.15 µM (inactive) | 11.6 µM (inactive) | 16.5 µM (inactive) | 9.64 µM (inactive) | 4.07 µM (inactive) | 2.88 µM (inactive) | 2.69 µM (inactive) | 4.51 µM (inactive) | 9.29 µM (inactive)
CC(C)(C)OC(=O)N[C@@H](Cc1ccccc1)C(=O)N1CC[C@@H](C(=O)N2[C@H]3CC4CC[C@@]3(CS2(=O)=O)C4(C)C)N1 | 39.3 µM (inactive) | 39.9 µM (inactive) | > 100 µM (inactive) | > 100 µM (inactive) | > 100 µM (inactive) | 39.4 µM (inactive) | 51.3 µM (inactive) | 52.4 µM (inactive) | – | 68.1 µM (inactive) | 24.6 µM (inactive) | 74 µM (inactive) | – | 97.3 µM (inactive) | > 100 µM (inactive) | 64.9 µM (inactive) | 50.6 µM (inactive) | 59.3 µM (inactive)
COc1ccc(/C=N/n2c(Cc3ccccc3)n[nH]c2=O)c(OC)c1 | > 100 µM (inactive) | 9.71 µM (inactive) | 9.98 µM (inactive) | > 100 µM (inactive) | 24.2 µM (inactive) | > 50.7 µM (inactive) | > 100 µM (inactive) | > 88.3 µM (inactive) | 28.8 µM (inactive) | > 58.6 µM (inactive) | > 71.4 µM (inactive) | 51.8 µM (inactive) | 15.3 µM (inactive) | 19.5 µM (inactive) | > 100 µM (inactive) | 30.4 µM (inactive) | 29.4 µM (inactive) | 24.7 µM (inactive)
CC1=C(C)SC(=C2Sc3c(n(C)c(=O)n(C)c3=O)S2)S1 | 47.6 µM (inactive) | 20.7 µM (inactive) | 48.4 µM (inactive) | > 100 µM (inactive) | 53.7 µM (inactive) | 30.5 µM (inactive) | > 100 µM (inactive) | 44.7 µM (inactive) | 13.2 µM (inactive) | 21.4 µM (inactive) | 33.7 µM (inactive) | > 100 µM (inactive) | 28.7 µM (inactive) | 76.9 µM (inactive) | 62.7 µM (inactive) | 45 µM (inactive) | 34.4 µM (inactive) | 23.6 µM (inactive)
O=C1/C(=C/c2ccccc2S)N=C(c2ccccc2)N1c1nc2ccc(Sc3ccccc3)cc2[nH]1 | 14.7 µM (inactive) | 22.3 µM (inactive) | 28.2 µM (inactive) | 36.5 µM (inactive) | 81.3 µM (inactive) | 21.9 µM (inactive) | 21 µM (inactive) | 21.9 µM (inactive) | – | 35.2 µM (inactive) | 18.4 µM (inactive) | 20.4 µM (inactive) | 27.4 µM (inactive) | 20.2 µM (inactive) | 24.1 µM (inactive) | 50.5 µM (inactive) | 37 µM (inactive) | 34.5 µM (inactive)
CC(C)(C)OC(=O)NCCCCC1NC(=O)[C@@H]2Cc3c([nH]c4ccccc34)C(c3ccccc3)N2C1=O (stereo partly drawn) | 29.4 µM (inactive) | – | 14.7 µM (inactive) | 64.6 µM (inactive) | 22.8 µM (inactive) | 30.4 µM (inactive) | 26.7 µM (inactive) | 23.4 µM (inactive) | – | 48.5 µM (inactive) | 27.6 µM (inactive) | 28.6 µM (inactive) | 22 µM (inactive) | 25.6 µM (inactive) | 33.4 µM (inactive) | 43.8 µM (inactive) | 25.9 µM (inactive) | 36.2 µM (inactive)
Oc1nc(-c2cccc(F)c2)nc2ccccc12 | > 62.8 µM (inactive) | 16.6 µM (inactive) | 29.9 µM (inactive) | > 76.7 µM (inactive) | 30.7 µM (inactive) | 36.1 µM (inactive) | > 21.3 µM (inactive) | 23.1 µM (inactive) | – | 25 µM (inactive) | > 67.1 µM (inactive) | 62.1 µM (inactive) | 39.4 µM (inactive) | > 100 µM (inactive) | 0.461 µM (active) | 31.1 µM (inactive) | 32.5 µM (inactive) | 29.8 µM (inactive)
CN1N=C(c2ccncc2)OC1c1ccccc1F (stereo not drawn) | > 100 µM (inactive) | – | > 100 µM (inactive) | > 100 µM (inactive) | > 100 µM (inactive) | > 100 µM (inactive) | > 100 µM (inactive) | > 100 µM (inactive) | > 100 µM (inactive) | > 100 µM (inactive) | > 100 µM (inactive) | > 100 µM (inactive) | > 100 µM (inactive) | > 100 µM (inactive) | > 100 µM (inactive) | > 100 µM (inactive) | > 100 µM (inactive) | > 100 µM (inactive)
Cc1cc(C)c(C#N)c(SC(=S)NC(=O)c2ccccc2)n1 | > 100 µM (inactive) | 1.53 µM (inactive) | 3.95 µM (inactive) | > 100 µM (inactive) | > 100 µM (inactive) | > 100 µM (inactive) | > 100 µM (inactive) | > 100 µM (inactive) | > 100 µM (inactive) | > 100 µM (inactive) | > 100 µM (inactive) | > 100 µM (inactive) | – | > 100 µM (inactive) | > 100 µM (inactive) | > 100 µM (inactive) | > 100 µM (inactive) | –
COc1ccccc1N1CCN(Cn2c(=O)oc3cccnc32)CC1 | > 100 µM (inactive) | 30 µM (inactive) | > 100 µM (inactive) | > 100 µM (inactive) | > 100 µM (inactive) | > 100 µM (inactive) | 66.7 µM (inactive) | – | > 100 µM (inactive) | > 100 µM (inactive) | > 100 µM (inactive) | > 100 µM (inactive) | > 100 µM (inactive) | > 100 µM (inactive) | > 100 µM (inactive) | > 100 µM (inactive) | > 100 µM (inactive) | > 100 µM (inactive)
CCN(CC)C(=S)SNCc1ccc(S(N)(=O)=O)cc1 | 15.6 µM (inactive) | 18.5 µM (inactive) | 18.1 µM (inactive) | 18.2 µM (inactive) | 22.5 µM (inactive) | 1.34 µM (inactive) | – | 24.9 µM (inactive) | 14.5 µM (inactive) | 18.7 µM (inactive) | 13.5 µM (inactive) | 10.7 µM (inactive) | 9.06 µM (inactive) | 8.47 µM (inactive) | > 100 µM (inactive) | 15.3 µM (inactive) | 19.3 µM (inactive) | 14.4 µM (inactive)
CC1CC[C@@]2(OC1)O[C@H]1[C@H](O)[C@H]3[C@@H]4CC[C@H]5C[C@@H](OC6OC(CO)C(OC7OC(CO)C(O)C(OC8OCC(O)C(O)C8O)C7OC7OC(CO)C(O)C(O)C7OC7OC(CO)C(O)C(O)C7O)C(O)C6O)[C@H](O)C[C@]5(C)[C@H]4CC[C@]3(C)[C@H]1[C@@H]2C (stereo partly drawn) | > 10 µM (inactive) | 3.1 µM (inactive) | > 10 µM (inactive) | > 10 µM (inactive) | > 10 µM (inactive) | > 10 µM (inactive) | 0.942 µM (active) | > 10 µM (inactive) | 9.46 µM (inactive) | 7.08 µM (inactive) | > 10 µM (inactive) | > 10 µM (inactive) | – | > 10 µM (inactive) | 1.77 µM (inactive) | > 10 µM (inactive) | 5.24 µM (inactive) | > 10 µM (inactive)
